Assays:
MOLT-3 [1] = assay: Antitumor activity against human MOLT3 cells in presence of Penicillin-G-amidase after 72 hrs by XTT assay; format: functional, cell-based; settings: MOLT-3, 72 h
MOLT-3 [2] = assay: Antitumor activity against human MOLT3 cells in absence of Penicillin-G-amidase after 72 hrs by XTT assay; format: functional, cell-based; settings: MOLT-3, 72 h

For `N[C@@H](Cc1ccc(N(CCCl)CCCl)cc1)C(=O)O` [MELPHALAN], the IC50 (MOLT-3 [1]) was 0.3 µM.
For `CN(CCN(C)C(=O)Oc1c(COC(=O)NC(Cc2ccc(N(CCCl)CCCl)cc2)C(=O)O)cc(COC(=O)NC(C(=O)O)c2ccc(N(CCCl)CCCl)cc2)cc1COC(=O)NC(Cc1ccc(N(CCCl)CCCl)cc1)C(=O)O)C(=O)OCc1ccc(NC(=O)Cc2ccccc2)cc1` (stereo not given), the IC50 (MOLT-3 [1]) was 6 µM and the IC50 (MOLT-3 [2]) was 100 µM.
`O=C(Cc1ccccc1)Nc1ccc(COC(=O)Nc2c(COC(=O)NC(Cc3ccc(N(CCCl)CCCl)cc3)C(=O)O)cc(COC(=O)NC(C(=O)O)c3ccc(N(CCCl)CCCl)cc3)cc2COC(=O)NC(Cc2ccc(N(CCCl)CCCl)cc2)C(=O)O)cc1` (stereo not given) gave an IC50 (MOLT-3 [1]) of 0.5 µM and an IC50 (MOLT-3 [2]) of 100 µM.

From ChEMBL document CHEMBL1147966, “Remarkable drug-release enhancement with an elimination-based AB3 self-immolative dendritic amplifier” (Bioorg Med Chem, 2007)
